Measurements published in patent EP3002287B1, “Thiochromeno[2,3-c]quinolin-12-one derivatives and their use as topoisomerase inhibitors” (National Defense Medical Center, priority 2014, dated 2016).

How the values were obtained:
NCI-H226 = test: NCI in vitro 60-cell drug screen (SRB assay); format: cell-based; conditions: NCI-H226 (Non-small cell lung cancer); 10^-5 molar concentration; 48 hours
SK-MEL-28 = test: NCI in vitro 60-cell drug screen (SRB assay); format: cell-based; conditions: SK-MEL-28 (Melanoma); 10^-5 molar concentration; 48 hours
PC-3 [1] = test: MTT assay for cell cytotoxicity; format: cell-based, human; conditions: Homo sapiens, 72 h, at least three independent experiments, read-out: MTT assay (IC50 ± SD) PC-3
DU-145 [2] = test: MTT assay for cell cytotoxicity; format: cell-based, human; conditions: Homo sapiens, 72 h, at least three independent experiments, read-out: MTT assay (IC50 ± SD) DU-145
How it was run: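 Seeded cells pre-incubated 24 h, then treated 72 h with 0.15–15 µM compound in RPMI-1640/5% FBS at 37 °C. MTT (1 mg/mL) added for 4 h, formazan dissolved in DMSO, absorbance at 560 nm; IC50 from mean of ≥3 independent experiments.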

HL-60(TB) = test: NCI in vitro 60-cell drug screen (SRB assay); format: cell-based; conditions: HL-60(TB) (Leukemia); 10^-5 molar concentration; 48 hours
SK-OV-3 = test: NCI in vitro 60-cell drug screen (SRB assay); format: cell-based; conditions: SK-OV-3 (Ovarian cancer); 10^-5 molar concentration; 48 hours
SF-295 = test: NCI in vitro 60-cell drug screen (SRB assay); format: cell-based; conditions: SF-295 (CNS cancer); 10^-5 molar concentration; 48 hours
SK-MEL-5 = test: NCI in vitro 60-cell drug screen (SRB assay); format: cell-based; conditions: SK-MEL-5 (Melanoma); 10^-5 molar concentration; 48 hours
SF-268 = test: NCI in vitro 60-cell drug screen (SRB assay); format: cell-based; conditions: SF-268 (CNS cancer); 10^-5 molar concentration; 48 hours
MDA-MB-435 = test: NCI in vitro 60-cell drug screen (SRB assay); format: cell-based; conditions: MDA-MB-435 (Melanoma); 10^-5 molar concentration; 48 hours
NCI-H23 = test: NCI in vitro 60-cell drug screen (SRB assay); format: cell-based; conditions: NCI-H23 (Non-small cell lung cancer); 10^-5 molar concentration; 48 hours
RPMI-8226 = test: NCI in vitro 60-cell drug screen (SRB assay); format: cell-based; conditions: RPMI-8226 (Leukemia); 10^-5 molar concentration; 48 hours
DU-145 [3] = test: NCI in vitro 60-cell drug screen (SRB assay); format: cell-based; conditions: DU-145 (Prostate cancer); 10^-5 molar concentration; 48 hours
HOP-92 = test: NCI in vitro 60-cell drug screen (SRB assay); format: cell-based; conditions: HOP-92 (Non-small cell lung cancer); 10^-5 molar concentration; 48 hours
T-47D = test: NCI in vitro 60-cell drug screen (SRB assay); format: cell-based; conditions: T-47D (Breast cancer); 10^-5 molar concentration; 48 hours
PC-3 [4] = test: NCI in vitro 60-cell drug screen (SRB assay); format: cell-based; conditions: PC-3 (Prostate cancer); 10^-5 molar concentration; 48 hours
HT29 = test: NCI in vitro 60-cell drug screen (SRB assay); format: cell-based; conditions: HT29 (Colon cancer); 10^-5 molar concentration; 48 hours
HCC-2998 = test: NCI in vitro 60-cell drug screen (SRB assay); format: cell-based; conditions: HCC-2998 (Colon cancer); 10^-5 molar concentration; 48 hours
COLO 205 = test: NCI in vitro 60-cell drug screen (SRB assay); format: cell-based; conditions: COLO 205 (Colon cancer); 10^-5 molar concentration; 48 hours
UO-31 = test: NCI in vitro 60-cell drug screen (SRB assay); format: cell-based; conditions: UO-31 (Renal cancer); 10^-5 molar concentration; 48 hours
CAKI-1 = test: NCI in vitro 60-cell drug screen (SRB assay); format: cell-based; conditions: CAKI-1 (Renal cancer); 10^-5 molar concentration; 48 hours
NCI/ADR-RES = test: NCI in vitro 60-cell drug screen (SRB assay); format: cell-based; conditions: NCI/ADR-RES (Ovarian cancer); 10^-5 molar concentration; 48 hours
TK-10 = test: NCI in vitro 60-cell drug screen (SRB assay); format: cell-based; conditions: TK-10 (Renal cancer); 10^-5 molar concentration; 48 hours
OVCAR-3 = test: NCI in vitro 60-cell drug screen (SRB assay); format: cell-based; conditions: OVCAR-3 (Ovarian cancer); 10^-5 molar concentration; 48 hours
IGROV1 = test: NCI in vitro 60-cell drug screen (SRB assay); format: cell-based; conditions: IGROV1 (Ovarian cancer); 10^-5 molar concentration; 48 hours
BT-549 = test: NCI in vitro 60-cell drug screen (SRB assay); format: cell-based; conditions: BT-549 (Breast cancer); 10^-5 molar concentration; 48 hours
KM12 = test: NCI in vitro 60-cell drug screen (SRB assay); format: cell-based; conditions: KM12 (Colon cancer); 10^-5 molar concentration; 48 hours
SW-620 = test: NCI in vitro 60-cell drug screen (SRB assay); format: cell-based; conditions: SW-620 (Colon cancer); 10^-5 molar concentration; 48 hours

SMILES | Growth percent (NCI-H226) | Growth percent (SK-MEL-28) | IC50 (PC-3 [1]) | IC50 (DU-145 [2]) | Growth percent (HL-60(TB)) | Growth percent (SK-OV-3) | Growth percent (SF-295) | Growth percent (SK-MEL-5) | Growth percent (SF-268) | Growth percent (MDA-MB-435) | Growth percent (NCI-H23) | Growth percent (RPMI-8226) | Growth percent (DU-145 [3]) | Growth percent (HOP-92) | Growth percent (T-47D) | Growth percent (PC-3 [4]) | Growth percent (HT29) | Growth percent (HCC-2998) | Growth percent (COLO 205) | Growth percent (UO-31) | other results
O=c1c2cc(Cl)ccc2sc2c(N3CCOCC3)nc3ccccc3c12 [Compound 13, 10-Chloro-6-morpholino-12H-thiochromeno[2,3-c]quinolin-12-one] | 88.01% | 111.28% | > 15 µM | > 15 µM | 93.38% | 77.18% | 93.62% | 95.88% | 103.56% | 102.07% | 95.21% | 89.54% | 110.81% | 60.43% | 80.00% | 79.80% | 83.73% | 108.75% | 99.24% | 73.11% | Growth percent (CAKI-1): 90.00%; Growth percent (NCI/ADR-RES): 98.16%; Growth percent (TK-10): 86.24%; Growth percent (OVCAR-3): 96.54%; Growth percent (IGROV1): 80.90%; Growth percent (BT-549): 113.81%; Growth percent (KM12): 88.68%; Growth percent (SW-620): 96.18%
O=c1c2cc(Cl)ccc2sc2c(N3CCN(c4ccccc4)CC3)nc3ccccc3c12 [Compound 12, 10-Chloro-6-(4-phenylpiperazin-1-yl)-12H-thiochromeno[2,3-c] quinolin-12-one] | 87.10% | 104.22% | > 15 µM | > 15 µM | 113.79% | 100.39% | 99.23% | 103.57% | 103.82% | 102.39% | 93.80% | 99.93% | 111.15% | 81.27% | 104.57% | 90.66% | 99.94% | 105.23% | 111.67% | 63.85% | Growth percent (CAKI-1): 97.83%; Growth percent (NCI/ADR-RES): 100.81%; Growth percent (TK-10): 112.45%; Growth percent (OVCAR-3): 109.63%; Growth percent (IGROV1): 91.38%; Growth percent (BT-549): 123.95%; Growth percent (KM12): 113.15%; Growth percent (SW-620): 100.20%
